Measured values published in patent publication US12435059B2, “AMP-activated protein kinase inhibitors and methods of making and using the same” (The Regents of the University of Colorado, priority 2019, dated 2025).
Like-named read-outs stand apart in the source and are kept apart here.

What was measured:
AMPKα1 [1] = target: T1, AMPKα1 (Homo sapiens (Human), UniProt Q13131); assay: LANCE Eu TR-FRET recombinant kinase assay, AMPK(α1); type: biochemical
Experimental: (§1) Assays were performed at 25° C. in a reaction mixture consisting of 2.5 μL serially diluted inhibitor solution, 2.5 μL kinase, 2.5 μL ATP and 2.5 μL substrate. Reagents were incubated for 1 hr before the reaction was halted through the addition of EDTA (10 mM) after which Eu anti-phospho-CREB (Ser133) antibody (PerkinElmer) was added at a final concentration of 2 nM for 1 hr. […] (n=3)).
Target sequence in this assay (Q13131 whole entry, looked up): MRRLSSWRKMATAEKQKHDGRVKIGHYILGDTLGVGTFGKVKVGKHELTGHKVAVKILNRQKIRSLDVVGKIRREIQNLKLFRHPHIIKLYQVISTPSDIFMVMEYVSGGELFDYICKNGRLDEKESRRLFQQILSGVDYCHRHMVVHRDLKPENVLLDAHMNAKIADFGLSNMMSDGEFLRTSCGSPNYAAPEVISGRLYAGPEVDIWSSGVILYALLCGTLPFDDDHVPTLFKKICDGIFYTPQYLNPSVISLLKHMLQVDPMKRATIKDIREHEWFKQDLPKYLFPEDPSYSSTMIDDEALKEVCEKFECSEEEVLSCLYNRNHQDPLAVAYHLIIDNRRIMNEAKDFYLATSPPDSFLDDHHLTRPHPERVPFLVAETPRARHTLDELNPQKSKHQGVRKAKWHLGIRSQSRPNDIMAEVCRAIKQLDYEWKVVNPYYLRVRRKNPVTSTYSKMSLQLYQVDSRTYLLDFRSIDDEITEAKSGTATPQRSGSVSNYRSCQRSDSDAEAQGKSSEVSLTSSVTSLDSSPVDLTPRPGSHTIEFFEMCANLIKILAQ
Target sequence in this assay (Q9Y478 whole entry partner, looked up): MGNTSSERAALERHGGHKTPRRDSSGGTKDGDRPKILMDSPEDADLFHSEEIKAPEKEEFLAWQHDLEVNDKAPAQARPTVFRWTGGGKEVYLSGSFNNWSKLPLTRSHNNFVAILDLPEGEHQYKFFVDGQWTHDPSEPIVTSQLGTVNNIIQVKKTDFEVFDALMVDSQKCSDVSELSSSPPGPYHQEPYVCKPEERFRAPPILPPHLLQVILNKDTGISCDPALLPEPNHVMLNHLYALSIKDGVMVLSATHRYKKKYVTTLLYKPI
Target sequence in this assay (P54619 whole entry partner, looked up): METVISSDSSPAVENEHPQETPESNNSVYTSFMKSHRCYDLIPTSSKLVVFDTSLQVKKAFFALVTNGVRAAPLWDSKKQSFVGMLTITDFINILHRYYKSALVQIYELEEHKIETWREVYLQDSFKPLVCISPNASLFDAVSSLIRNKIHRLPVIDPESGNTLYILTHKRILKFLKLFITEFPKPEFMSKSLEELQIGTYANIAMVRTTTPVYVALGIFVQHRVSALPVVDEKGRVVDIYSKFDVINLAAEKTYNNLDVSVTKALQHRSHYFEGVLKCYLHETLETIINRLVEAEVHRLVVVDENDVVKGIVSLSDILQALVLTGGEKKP

AMPK(α2) = AMPK(α2) (Homo sapiens (Human), UniProt P54646); assay: LANCE Eu TR-FRET recombinant kinase assay, AMPK(α2); type: biochemical
Experimental: as §1

cellular AMPK = assay: p-ACC(Ser79) ELISA in K562 cell lysates (glucose-free media, 2-DG); type: cell-based; conditions: K562, glucose-free media, 2-DG 12 mM, compound 5 μM single dose; relative to DMSO control
Experimental: FIGS. 2A and 2B are a series of graphs showing the effects of compounds of the present disclosure on cellular levels of p-ACC(Ser79) in K562 cells. FIG. 2A Quantitative ELISA determination of p-ACC(Ser79) levels in K562 lysates (1.0 mg mL^−1 total protein) following growth in glucose-free media for 24 h, 2-DG (12 mM) treatment for 1 h followed by treatment with inhibitor compounds at 5.0 μM for 2 h. Relative p-ACC levels are reported as a percentage of levels resultant from DMSO control treatment. […] Cells were collected, washed with PBS and lysed on ice in lysis buffer containing 1% Triton X (Cell Signaling). Lysates were someated (1×5 seconds) and centrifuged for 10 minutes at 10,000 rpm and 4° C., and the protein concentration in supernatants was determined by Lowry assay. Lysates were diluted with ELISA PathScan® sample diluent to a final volume of 100 μL and protein concentration of 1.0 mg/ml prior to use. The concentration of p-ACC (Ser79) was determined using an enzyme-linked immunosorbent assay according to recommended protocol (Cell Signaling, ELISA PathScan® phospho-Acetyl-CoA Carboxylase (Ser79)) and expressed as a relative percentage of the DMSO control.
The AMPK substrate ACC is used as a biomarker for the relative activity of AMPK, and the levels of p-ACC(Ser79) were measured by ELISA in the absence or presence of the compounds to determine the compounds' effects on cellular AMPK activity. The presence of total AMPK, p-AMPK, total ACC, and p-ACC was measured by Western blot in a panel of leukemic cell lines grown in glucoe competent or glucose-free media. […] The cell lysates from K562 cells grown in glucose-free media in the presence 2-DG and treated with compounds of the present disclosure were analyzed by the p-ACC(Ser79) ELISA to determine the effect of the compounds on cellular AMPK activity.

K562 cells [2] = assay: MTS cell viability assay in K562 cells; type: cell-based; conditions: Homo sapiens; K562, RPMI-1640; Table 2 head prints 24 h, method and FIG. 3A legend 72 hours
Experimental: (§2) The cells were incubated with inhibitors for 24 hours, before the plates were equilibrated to room temperature and 100 μL CellTiter-Glo reagent was added. […] Luminescent signal was plotted against the inhibitor log-dose and evaluated by a non-linear regression to determine half-maximal effect concentration (EC50) values, where possible.
An MTS assay was utilized to assess the effect of inhibitors on K562 viability.

K562 cells [3] = assay: CellTiter-Glo cell viability assay in K562 cells (glucose-free media); type: cell-based; conditions: Homo sapiens, read-out: EC50 CellTiter Glo 24 h
Experimental: as §2
(§3) In order to increase the reliance of the cells on AMPK function, assays were needed that could be performed under glucose-free conditions. Therefore in order to elucidate the mechanism of action of the AMPK inhibitors, a CellTiter-Glo cell viability assay (FIG. 3B), which provide a readout proportional to ATP concentration, and thus, cellular viability, as well as a CellTox green cellular toxicity assay (FIG. 3C and FIG. 3D), which contain a dye that fluoresces upon DNA-binding in cells with impraied membrane integrity due to cytotoxicity were performed in K562 cells grown in glucose-free media. The results are summarized in Table 2 (values are the mean±S.D. (n=3)).

K562 cells [4] = assay: CellTox green cellular toxicity assay in K562 cells (glucose-free media); type: cell-based; conditions: for EC50: Homo sapiens
Source text: Fluorescence was plotted against inhibitor log-dose and evaluated by a non-linear regression to determine half-maximal effect concentration (EC50) values, where possible.
as §3

468 kinases = 468 kinases (Homo sapiens, UniProt Q14004); assay: biochemical; type: binding; conditions: read-out: % Inhibition @ 100 nM, CDC2L5
BTK = BTK (Homo sapiens (Human), UniProt Q06187); assay: Kinome binding analysis at 100 nM, BTK
AMPKα1 [5] = target: T1, AMPKα1; conditions: purified AMPK protein; read-out: AMPKα1 IC50, 32P radioactivity assay; cited from earlier work
Target sequence in this assay (Q13131 whole entry): as the sequence (Q13131 whole entry, looked up) above
Target sequence in this assay (Q9Y478 whole entry partner): as the sequence (Q9Y478 whole entry partner, looked up) above
Target sequence in this assay (P54619 whole entry partner): as the sequence (P54619 whole entry partner, looked up) above

KDR = KDR (Homo sapiens (Human), UniProt P35968); assay: LanthaScreen Eu TR-FRET KDR competitive binding assay; conditions: read-out: IC50 (nM) KDR; mean±S.D. (n=3); competitive binding
[6] = read-out: EC50 CellTox Green 48 h, 48 h

Sequence of BTK (Q06187 whole entry): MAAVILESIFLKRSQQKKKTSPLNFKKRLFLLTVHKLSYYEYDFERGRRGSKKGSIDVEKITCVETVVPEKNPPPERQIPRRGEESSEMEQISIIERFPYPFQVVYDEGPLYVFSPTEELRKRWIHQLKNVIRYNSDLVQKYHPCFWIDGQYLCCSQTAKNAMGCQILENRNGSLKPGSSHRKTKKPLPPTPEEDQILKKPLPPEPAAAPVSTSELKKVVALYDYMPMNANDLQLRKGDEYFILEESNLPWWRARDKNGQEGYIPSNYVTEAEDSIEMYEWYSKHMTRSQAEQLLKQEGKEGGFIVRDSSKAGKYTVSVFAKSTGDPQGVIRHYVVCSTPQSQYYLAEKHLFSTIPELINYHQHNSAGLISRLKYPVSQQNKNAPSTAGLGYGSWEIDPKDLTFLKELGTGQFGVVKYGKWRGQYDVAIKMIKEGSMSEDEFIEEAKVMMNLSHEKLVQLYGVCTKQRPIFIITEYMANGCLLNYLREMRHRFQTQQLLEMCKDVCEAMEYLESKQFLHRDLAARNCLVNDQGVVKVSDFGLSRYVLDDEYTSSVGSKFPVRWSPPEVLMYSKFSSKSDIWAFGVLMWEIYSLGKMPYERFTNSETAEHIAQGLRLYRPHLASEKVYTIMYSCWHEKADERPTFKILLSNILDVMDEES
Sequence of AMPK(α2) (P54646 whole entry, looked up): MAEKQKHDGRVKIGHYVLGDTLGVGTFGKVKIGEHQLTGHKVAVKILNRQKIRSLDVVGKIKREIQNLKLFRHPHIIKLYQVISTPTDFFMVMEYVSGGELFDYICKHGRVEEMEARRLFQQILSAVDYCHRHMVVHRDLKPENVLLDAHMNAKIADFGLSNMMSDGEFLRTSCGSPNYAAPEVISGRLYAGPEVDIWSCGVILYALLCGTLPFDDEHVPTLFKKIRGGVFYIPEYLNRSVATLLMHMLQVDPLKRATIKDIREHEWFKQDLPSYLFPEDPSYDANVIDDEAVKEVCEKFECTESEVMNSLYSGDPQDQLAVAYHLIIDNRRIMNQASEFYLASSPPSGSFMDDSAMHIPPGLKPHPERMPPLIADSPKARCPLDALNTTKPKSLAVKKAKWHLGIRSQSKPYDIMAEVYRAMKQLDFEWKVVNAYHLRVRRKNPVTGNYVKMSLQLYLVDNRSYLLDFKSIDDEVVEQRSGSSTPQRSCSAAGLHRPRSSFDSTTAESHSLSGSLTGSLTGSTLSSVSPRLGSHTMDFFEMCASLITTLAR
Sequence of AMPK(α2) (Q9Y478 whole entry partner, looked up): as the sequence (Q9Y478 whole entry partner, looked up) above
Sequence of AMPK(α2) (P54619 whole entry partner, looked up): as the sequence (P54619 whole entry partner, looked up) above
Sequence of KDR (P35968 20-1356): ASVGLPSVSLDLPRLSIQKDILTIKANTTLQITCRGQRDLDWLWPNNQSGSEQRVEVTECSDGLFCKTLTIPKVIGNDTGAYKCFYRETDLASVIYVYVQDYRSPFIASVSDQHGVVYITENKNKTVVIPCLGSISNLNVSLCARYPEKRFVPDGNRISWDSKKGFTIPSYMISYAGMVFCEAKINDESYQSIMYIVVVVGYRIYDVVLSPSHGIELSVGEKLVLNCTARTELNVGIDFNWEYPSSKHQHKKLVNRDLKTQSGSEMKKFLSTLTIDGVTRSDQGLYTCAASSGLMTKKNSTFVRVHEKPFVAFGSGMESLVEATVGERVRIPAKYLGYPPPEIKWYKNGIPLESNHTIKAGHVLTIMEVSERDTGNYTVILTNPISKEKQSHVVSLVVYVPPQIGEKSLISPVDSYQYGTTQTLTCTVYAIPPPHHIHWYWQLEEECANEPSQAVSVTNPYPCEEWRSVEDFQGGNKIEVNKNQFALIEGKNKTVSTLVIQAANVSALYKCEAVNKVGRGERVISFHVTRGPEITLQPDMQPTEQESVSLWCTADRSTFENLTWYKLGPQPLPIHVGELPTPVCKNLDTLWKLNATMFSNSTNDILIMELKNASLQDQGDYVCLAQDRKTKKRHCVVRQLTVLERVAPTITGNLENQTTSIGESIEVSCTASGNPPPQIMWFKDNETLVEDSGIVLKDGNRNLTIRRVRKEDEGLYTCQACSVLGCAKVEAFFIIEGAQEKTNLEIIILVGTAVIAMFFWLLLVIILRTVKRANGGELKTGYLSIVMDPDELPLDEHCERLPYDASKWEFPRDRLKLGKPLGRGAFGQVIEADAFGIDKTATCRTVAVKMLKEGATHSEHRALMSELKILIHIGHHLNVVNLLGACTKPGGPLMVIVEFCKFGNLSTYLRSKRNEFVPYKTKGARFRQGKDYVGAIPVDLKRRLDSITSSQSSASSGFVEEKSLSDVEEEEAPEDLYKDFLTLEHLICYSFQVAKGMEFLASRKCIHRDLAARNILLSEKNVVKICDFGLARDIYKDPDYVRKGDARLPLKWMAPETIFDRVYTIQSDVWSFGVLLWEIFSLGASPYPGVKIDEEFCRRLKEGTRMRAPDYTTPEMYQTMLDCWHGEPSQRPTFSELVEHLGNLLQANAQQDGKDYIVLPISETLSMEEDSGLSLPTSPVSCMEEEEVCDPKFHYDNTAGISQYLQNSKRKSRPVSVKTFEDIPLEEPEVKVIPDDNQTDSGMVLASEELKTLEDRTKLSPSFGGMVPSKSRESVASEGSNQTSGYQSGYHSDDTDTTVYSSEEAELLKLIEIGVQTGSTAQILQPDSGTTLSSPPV

For `CCN(CC)CCNC(=O)c1c(C)[nH]c(/C=C2\C(=O)N(C)c3ccc(F)cc32)c1C` [Compound No. 1, (Z)—N-(2-(Diethylamino)ethyl)-5-((5-fluoro-1-methyl-2-oxoindolin-3-ylidene)methyl)-2,4-dimethyl-1H-pyrrole-3-carboxamide], the “AMPK(α1) % inhibition at 20 μM” value (AMPKα1 [1]; at 20 μM) was 40%, the “AMPK(α2) % inhibition at 10 μM” value (AMPK(α2); at 10 μM) was 17% and the “Relative p-ACC(Ser79) level” value (cellular AMPK) was 97.1 % of control. The EC50 (K562 cells [2]) was 6.79 ± 0.15 µM, the EC50 (K562 cells [3]) was 11.8 ± 0.78 µM and the EC50 (K562 cells [4]; read-out: EC50 CellTox Green 24 h, 24 h) was 12.1 ± 0.91 µM. For the same compound, the EC50 (K562 cells [4]; [6]) was 6.91 ± 0.06 µM.

With `CCN(CC)CCNC(=O)c1c(C)[nH]c(/C=C2\C(=O)Nc3ccc(F)cc32)c1C` [Sunitinib, (Z)—N-(2-(Diethylamino)ethyl)-5-((5-fluoro-2-oxoindolin-3-ylidene)methyl)-2,4-dimethyl-1H-pyrrole-3-carboxamide, reference compound] the “CellTox Green 24 h % inhibition at 50 μM” value (K562 cells [4]; 24 h, at 50 μM) was 61% at 50 μM, the inhibition at 0.1 µM (468 kinases) was 49% and the “BTK inhibition, in words” value (BTK; 100 nM) was “strongly inhibited”. It also gave an inhibition at 0.1 µM (BTK; read-out: Percentage inhibition at 100 nM, BTK) of 91.3%.

In the case of `CNC(=O)c1ccccc1Oc1nc(Nc2cc(OC)c(OC)c(OC)c2)ncc1Br` [SBI-0206965], the IC50 (AMPKα1 [5]) is listed as 0.4 µM.

For `CCN(CC)CCNC(=O)c1c(C)[nH]c(/C=C2\C(=O)Nc3ccc(CCC#N)cc32)c1C` [Compound No. 15, (Z)-5-((5-(2-cyanoethyl)-2-oxoindolin-3-ylidene)methyl)-N-(2-(diethylamino)ethyl)-2,4-dimethyl-1H-pyrrole-3-carboxamide], the IC50 (AMPKα1 [1]; mean±S.D. (n=3), ATP 8 μM, read-out: IC50 (nM) AMPK(α1)) was 164 ± 10 nM, the IC50 (AMPK(α2); mean±S.D. (n=3), ATP 20 μM) was 32.4 ± 7.8 nM and the “Relative p-ACC(Ser79) level” value (cellular AMPK) was 34.1 % of control. It also gave an EC50 (K562 cells [2]) of 14.8 ± 0.22 µM, an EC50 (K562 cells [3]) of 17.8 ± 0.78 µM and an EC50 (K562 cells [4]; [6]) of 13.6 ± 1.07 µM. The IC50 (KDR) was 1330 ± 140 nM.
